Values joined by “and” are separate entries in the source; they are usually repeats but may differ in a detail not shown here. Equal entries are not always repeated. Where two headings read alike, the source gives them in different places.
Columns and labels:
recombinant PDE4C = recombinant PDE4C (Homo sapiens, UniProt Q08493); test: Inhibition of recombinant PDE4 subtype PDE4C; type: biochemical
Description: (§1) Cyclic nucleotides phosphodiesterase activity was measured by a radioenzyme method using tritiated cyclic AMP or GMP (1 μM) as substrate (Lugnier C. et al., Biochem. Pharmacol. (1986) 35, 1743-1751; Keravis T et al., Meth. Mol. Biol. (2005) 307, 63-74.). Tritiated adenosine or guanosine monophosphate formed by hydrolysis of the labelled cyclic nucleotide was transformed, in a second incubation with excess nucleotidase, into tritiated adenosine or guanosine. The formed nucleoside was separated from nucleotides by anion exchange resin chromatography. The radioactivity of the nucleoside was measured by liquid scintillation. Enzyme incubations were carried out under conditions in which there was no more than 15% of substrate hydrolysis, and each point was repeated.
(§2) The concentration of the substance causing 50% inhibition of enzymatic activity (IC50) at 1 μM substrate was calculated by non-linear regression (Prism, GraphPad) with the help of the results obtained for compound concentrations that varied as the molecule concentration was increased from 1 nM to 300 μM. Because of solubility problems, the maximum concentration used in this study was limited to 300 μM.

[1] = system: TNF-α secretion by PBMCs of patients with auto-immune diseases; test: TNF-α secretion after LPS stimulation of mononuclear blood cells of autoimmune patients; type: cell-based, human; settings: for inhibition at 10 µM: Homo sapiens, PBMC
Description: FIG. 5. Inhibition of TNF-α secretion by compound NCS 613 after LPS stimulation of the PBMCs of patients with auto-immune diseases. Blood cells from patients with lupus (SLE), rheumatoid arthritis (RA) and Sjögren's syndrome (SS) were incubated for 45 minutes in the presence or absence of NCS 613 (10 μM), then stimulated with LPS. The supernatants were recovered after 24 hours of culture and the level of TNF-α in supernatants was measured by ELISA. The results are given in TNF-α concentration after incubation in the presence or absence of NCS 613 (A) or as inhibition of TNF-α secretion after incubation with NCS 613 (B). Error bars show the standard deviation of duplicates.
(§3) The blood of 5 patients with lupus, rheumatoid arthritis or Sjögren's syndrome was collected directly in heparinated tubes. Mononuclear blood cells were separated by centrifugation (30 min at 600 g) on a Ficoll gradient. Cells were then grown at a concentration of 2×10^5 cells per well in the presence or absence of compound NCS 613 (10 μM) for 45 minutes then stimulated with LPS. Supernatants were recovered after 24 hours of culture and the level of TNF-α in supernatants was measured by double sandwich ELISA (BD Biosciences).

PDE5 = biological target: T1, PDE5 (Bos taurus, UniProt Q28156); test: PDE5 inhibition, radioenzyme assay, enzyme isolated from vascular tissue; type: biochemical, bovine; settings: PDEs isolated from vascular tissue; 1 μM substrate
T1 construct: Effects of compound NCS 613 on PDEs isolated; from tissue; host or cells: bovine aortic media, cytosol, DEAE-Sephacel fraction
Description: as §1, with “Enzyme incubations were carried out under conditions in which there was no more than 15% of substrate hydrolysis, and each point was repeated.” left out
(§4) A 3 g piece of bovine aortic media was chopped up with scissors, homogenised using an Ultra-Turrex then using a glass/glass Potter in 7 volumes/weight of buffer A containing a cocktail of protease inhibitors (20 mM Tris-HCl, 0.25 M saccharose, 2 mM magnesium acetate, 1 mM dithiothreitol, 5 mM EGTA, 2000 U/ml aprotinine, 10 mg/l leupeptine and 10 mg/l soy-bean trypsin inhibitor). […] The column was washed until no absorption at 280 nm could be detected, then elution was with a linear NaCl gradient (0-0.5 M) in buffer B. 3 ml fractions were collected and enzymatic activity was measured under various conditions so as to determine the peaks of enzymatic activity contained in the fractions for, in the order of elution, PDE1, PDE5, PDE3 and PDE4. […]

recombinant PDE4A = recombinant PDE4A (Homo sapiens, UniProt P27815); test: Inhibition of recombinant PDE4 subtype PDE4A; type: biochemical
Sequence of recombinant PDE4A (P27815 whole entry, species assumed): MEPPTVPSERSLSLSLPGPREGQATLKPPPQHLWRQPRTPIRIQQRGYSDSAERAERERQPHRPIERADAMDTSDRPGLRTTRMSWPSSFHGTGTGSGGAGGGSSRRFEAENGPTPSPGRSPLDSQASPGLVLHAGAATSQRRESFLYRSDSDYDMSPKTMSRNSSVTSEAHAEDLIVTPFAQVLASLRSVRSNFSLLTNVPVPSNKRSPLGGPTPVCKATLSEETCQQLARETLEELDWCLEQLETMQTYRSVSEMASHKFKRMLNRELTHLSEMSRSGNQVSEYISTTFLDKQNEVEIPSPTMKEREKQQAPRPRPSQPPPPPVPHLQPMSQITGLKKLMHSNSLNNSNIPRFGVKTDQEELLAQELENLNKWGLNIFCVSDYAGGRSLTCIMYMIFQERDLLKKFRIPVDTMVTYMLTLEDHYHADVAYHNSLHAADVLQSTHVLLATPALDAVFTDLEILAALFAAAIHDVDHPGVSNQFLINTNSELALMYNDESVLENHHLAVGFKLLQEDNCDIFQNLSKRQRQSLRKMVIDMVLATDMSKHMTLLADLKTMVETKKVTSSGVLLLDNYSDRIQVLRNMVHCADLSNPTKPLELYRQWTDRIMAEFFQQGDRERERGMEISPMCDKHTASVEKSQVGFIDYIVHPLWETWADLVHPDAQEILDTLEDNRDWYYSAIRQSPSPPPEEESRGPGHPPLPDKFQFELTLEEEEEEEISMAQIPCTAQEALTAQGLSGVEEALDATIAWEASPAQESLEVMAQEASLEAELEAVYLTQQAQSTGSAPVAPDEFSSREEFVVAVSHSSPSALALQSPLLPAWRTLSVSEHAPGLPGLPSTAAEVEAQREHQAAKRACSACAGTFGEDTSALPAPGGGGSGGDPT
Description: as §1, §2

PDE2 = biological target: T2, PDE2 (Homo sapiens, UniProt O00408); test: PDE2 inhibition, radioenzyme assay, enzyme isolated from platelets; type: biochemical; settings: 1 μM substrate
T2 construct: from tissue; host or cells: human platelets, cytosol, DEAE-Sephacel then MonoQ HPLC
T2 sequence (O00408 whole entry): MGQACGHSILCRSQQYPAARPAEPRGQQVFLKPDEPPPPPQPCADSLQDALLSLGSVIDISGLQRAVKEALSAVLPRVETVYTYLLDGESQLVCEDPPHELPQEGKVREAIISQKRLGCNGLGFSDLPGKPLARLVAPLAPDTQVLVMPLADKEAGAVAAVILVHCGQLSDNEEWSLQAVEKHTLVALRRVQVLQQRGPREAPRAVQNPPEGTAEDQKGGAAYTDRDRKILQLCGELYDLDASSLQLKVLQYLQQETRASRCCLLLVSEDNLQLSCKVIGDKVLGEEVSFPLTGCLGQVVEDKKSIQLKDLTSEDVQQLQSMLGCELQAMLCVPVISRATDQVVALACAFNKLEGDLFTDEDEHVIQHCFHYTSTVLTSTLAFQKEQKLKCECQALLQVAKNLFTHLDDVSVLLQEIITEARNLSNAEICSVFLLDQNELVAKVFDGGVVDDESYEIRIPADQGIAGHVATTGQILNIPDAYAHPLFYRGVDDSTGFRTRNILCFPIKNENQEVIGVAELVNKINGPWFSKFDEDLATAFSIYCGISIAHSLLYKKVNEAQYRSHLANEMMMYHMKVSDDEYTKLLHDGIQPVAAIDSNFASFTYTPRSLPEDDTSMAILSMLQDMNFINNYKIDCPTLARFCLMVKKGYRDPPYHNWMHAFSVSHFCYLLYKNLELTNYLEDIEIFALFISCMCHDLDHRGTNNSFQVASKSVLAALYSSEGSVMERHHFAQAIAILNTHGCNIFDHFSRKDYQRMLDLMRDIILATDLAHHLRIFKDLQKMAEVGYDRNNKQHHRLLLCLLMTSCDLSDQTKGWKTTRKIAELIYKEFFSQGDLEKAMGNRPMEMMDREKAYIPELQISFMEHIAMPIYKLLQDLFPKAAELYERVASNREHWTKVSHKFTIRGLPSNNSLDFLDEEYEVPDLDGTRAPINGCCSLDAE
Description: as §1
Washed human platelets from the French Blood Bank (Etablissement Francais du Sang) in Strasburg were left to stand, then the sedimented cells were homogenised in buffer A and centrifuged at 105.000 g for 1 hour. The supernatant was subject to chromatography following the procedure already described for the aortic media (C-2). Then the fractions rich in PDE2 (activity stimulated by 5 μM cGMP) were subject to HPLC chromatography using Pharmacia's MonoQ H/R 5×5. The fraction containing PDE2 was aliquoted and stored at −80° C. (Kameni Tcheudji J. F et al, J. Mol. Biol. (2001) 310, […].). […]

MRL/lpr mice [2] = test: Survival of MRL/lpr lupus mice; type: in vivo, mouse; settings: for effect on survival / life expectancy of MRL/lpr mice: 4 i.v. administrations (NCS 613 30 μg, denbufylline 100 μg), followed to 26 weeks
Description: FIG. 2: Effect of compound NCS 613 (A) and denbufylline (B) on survival of MRL/lpr lupus mice. Up to the age of 13 weeks, the mice received 4 administrations either of 30 μg of compound NCS 613 or of 100 μg of denbufylline. The results are expressed in percentage survival of mice. Control mice received only PBS (phosphate buffered saline, pH 7.4) without the active ingredient.
(§5) Pre-autoimmune female MRL/lpr mice aged 5 weeks received by intravenous route, either buffered saline (PBS; control group, 100 μl per mouse), or compound NCS 613, (30 μg/100 μl per mouse, diluted in saline solution containing 10% ethanol), or denbufylline (100 μg/100 μl per mouse, diluted in saline solution containing 10% ethanol). The […] groups were composed of 10 mice each. The administrations (4 in number) were carried out at the ages of 5, 7, 9 and 13 weeks, and mice were monitored regularly (observations, proteinuria test by Albutix strip, blood tests).

recombinant PDE4D = recombinant PDE4D (Homo sapiens, UniProt Q08499); test: Inhibition of recombinant PDE4 subtype PDE4D; type: biochemical
Sequence of recombinant PDE4D (Q08499 whole entry, species assumed): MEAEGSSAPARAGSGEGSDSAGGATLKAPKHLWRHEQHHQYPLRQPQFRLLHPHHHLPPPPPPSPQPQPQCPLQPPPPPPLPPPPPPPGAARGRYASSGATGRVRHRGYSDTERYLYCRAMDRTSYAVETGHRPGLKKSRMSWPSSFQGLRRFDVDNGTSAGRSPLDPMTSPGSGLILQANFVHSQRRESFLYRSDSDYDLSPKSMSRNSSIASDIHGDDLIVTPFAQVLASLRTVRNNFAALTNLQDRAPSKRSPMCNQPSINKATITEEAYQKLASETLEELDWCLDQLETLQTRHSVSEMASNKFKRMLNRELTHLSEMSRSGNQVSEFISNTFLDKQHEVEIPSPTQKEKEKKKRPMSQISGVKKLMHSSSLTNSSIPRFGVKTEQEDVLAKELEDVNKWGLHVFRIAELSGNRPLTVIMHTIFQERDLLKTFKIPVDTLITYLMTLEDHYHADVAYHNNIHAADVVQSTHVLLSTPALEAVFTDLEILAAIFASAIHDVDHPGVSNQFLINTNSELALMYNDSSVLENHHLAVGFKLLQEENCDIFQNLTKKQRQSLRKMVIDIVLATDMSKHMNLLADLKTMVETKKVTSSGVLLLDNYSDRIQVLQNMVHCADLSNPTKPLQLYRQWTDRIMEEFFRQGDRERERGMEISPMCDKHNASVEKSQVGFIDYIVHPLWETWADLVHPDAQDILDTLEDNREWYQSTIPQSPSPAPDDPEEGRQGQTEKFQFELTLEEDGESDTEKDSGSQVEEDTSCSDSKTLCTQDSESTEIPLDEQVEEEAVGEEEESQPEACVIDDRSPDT
Description: as §1, §2

MRL/lpr mice [3] = test: Proteinuria in MRL/lpr lupus mice; type: in vivo, mouse
Description: FIG. 1: Effect of compound NCS 613 and denbufylline on proteinuria in MRL/lpr mice. Up to the age of 13 weeks, the mice received 4 administrations either of 30 μg of compound NCS 613 or of 100 μg of denbufylline.
as §5

PDE4 = PDE4 inhibition, radioenzyme assay, enzyme isolated from vascular tissue; type: biochemical, bovine; settings: PDEs isolated from vascular tissue; 1 μM substrate
Description: as §1, with “Enzyme incubations were carried out under conditions in which there was no more than 15% of substrate hydrolysis, and each point was repeated.” left out
as §4

PDE1 = PDE1 inhibition, radioenzyme assay, enzyme isolated from vascular tissue; type: biochemical, bovine; settings: PDEs isolated from vascular tissue; 1 μM substrate
Description: as §1, with “Enzyme incubations were carried out under conditions in which there was no more than 15% of substrate hydrolysis, and each point was repeated.” left out
as §4

[4] = system: TNF-α secretion by blood cells of MRL/lpr mice; test: TNF-α secretion by blood cells from treated mice after ex vivo LPS stimulation; type: in vivo, mouse; settings: LPS 24 h ex vivo
Description: FIG. 3: Effect of compound NCS 613 and denbufylline on the production of TNF-α by blood cells from treated mice after LPS stimulation. TNF-α secretion by blood cells from mice having received saline solution (PBS), compound NCS 613 or denbufylline after ex vivo LPS stimulation for 24 hours was measured in the supernatants by ELISA. The error bars show the standard deviation of duplicates, and the percentage inhibition of TNF-α secretion as a function of the secretion measured in the PBS group is shown. The figures refer to experiments carried out on mice aged 11 (A) and 14 (B) weeks.
as §5
TNF-α secretion was measured after bacterial lipopolysaccharide (LPS) stimulation of mouse blood cells (blood pooled from the 7 mice per group). LPS cell stimulation for 24 hours generates TNF-α secretion which can then be measured in culture supernatants. Cells from the blood of the 3 groups of mice were separated on a Ficoll gradient, and then stimulated by LPS. Supernatants were collected after 24 hours of culture, and the presence of TNF-α in supernatants was measured by a double sandwich ELISA test (BD Biosciences). This experiment was carried out at different ages (11 and 14 weeks, that is 2 weeks after the 3rd administration and 1 week after the 4th administration respectively).

[5] = system: TNF-α secretion by PBMCs of a lupus patient; test: Basal TNF-α secretion by mononuclear blood cells of a lupus patient; type: cell-based; settings: Homo sapiens, PBMC, no LPS stimulation, one lupus patient, read-out: inhibition of spontaneous (basal) TNF-α secretion
Description: FIG. 6: Inhibition of TNF-α secretion by PBMCs of a lupus patient after incubation with NCS 613. The blood cells of a lupus patient (LED2) were incubated in the presence or absence of NCS 613 (10 μM). Supernatants were recovered after 24 hours of culture and the level of TNF-α in the supernatants was measured by ELISA. The results are given as TNF-α concentration after incubation in the presence or absence of NCS 613 and the percentage inhibition of TNF-α secretion after incubation with NCS 613 is shown. Error bars show the standard deviation of duplicates.
as §3
So the ability of compound NCS 613 to inhibit basal TNF-α secretion was studied in blood cells of this patient.

PDE6 = PDE6 (so in the source) inhibition, radioenzyme assay, enzyme isolated from vascular tissue; type: biochemical, bovine; settings: PDEs isolated from vascular tissue; 1 μM substrate
Description: as §1, with “Enzyme incubations were carried out under conditions in which there was no more than 15% of substrate hydrolysis, and each point was repeated.” left out
as §4

MRL/lpr mice [6] = test: Anti-double-stranded DNA antibodies in serum of MRL/lpr mice (ELISA); type: in vivo, mouse; settings: for percentage of mice positive for anti-DNA Abs in serum: positive = OD > 1; for age at which first anti-DNA Ab positive mice appeared: treatment stopped at 13 weeks
Description: FIG. 4: Effect of compound NCS 613 and denbufylline on anti-double-stranded DNA Abs. The presence of Abs directed against DNA in murine serums was measured at different ages (in weeks) by ELISA. Results are shown as a percentage of positive mice. A mouse is defined as positive when the optical density (OD) measured by ELISA is greater than 1.
as §5
The presence of Abs directed against DNA in murine serums was measured at different ages by ELISA (Monneaux et al., Eur. J. Immunol. (2003) 33, 287-296; Monneaux et al, Arthritis Rheum (2004) 50, 3232-3238.). Calf thymus double-stranded DNA (Sigma) was adsorbed (100 ng/ml) on 96 well polyvinyl chloride plates (Falcon) and incubated overnight at 37° C. After three washes and a saturation step in PBS-Tween buffer containing bovine serum albumin, serums (diluted to 1/500) were incubated for one hour at 37° C. […] The absorbance was measured at 450 nm by spectrophotometry after the reaction had been stopped.

recombinant PDE4B = recombinant PDE4B (Homo sapiens, UniProt Q07343); test: Inhibition of recombinant PDE4 subtype PDE4B; type: biochemical
Sequence of recombinant PDE4B (Q07343 whole entry, species assumed): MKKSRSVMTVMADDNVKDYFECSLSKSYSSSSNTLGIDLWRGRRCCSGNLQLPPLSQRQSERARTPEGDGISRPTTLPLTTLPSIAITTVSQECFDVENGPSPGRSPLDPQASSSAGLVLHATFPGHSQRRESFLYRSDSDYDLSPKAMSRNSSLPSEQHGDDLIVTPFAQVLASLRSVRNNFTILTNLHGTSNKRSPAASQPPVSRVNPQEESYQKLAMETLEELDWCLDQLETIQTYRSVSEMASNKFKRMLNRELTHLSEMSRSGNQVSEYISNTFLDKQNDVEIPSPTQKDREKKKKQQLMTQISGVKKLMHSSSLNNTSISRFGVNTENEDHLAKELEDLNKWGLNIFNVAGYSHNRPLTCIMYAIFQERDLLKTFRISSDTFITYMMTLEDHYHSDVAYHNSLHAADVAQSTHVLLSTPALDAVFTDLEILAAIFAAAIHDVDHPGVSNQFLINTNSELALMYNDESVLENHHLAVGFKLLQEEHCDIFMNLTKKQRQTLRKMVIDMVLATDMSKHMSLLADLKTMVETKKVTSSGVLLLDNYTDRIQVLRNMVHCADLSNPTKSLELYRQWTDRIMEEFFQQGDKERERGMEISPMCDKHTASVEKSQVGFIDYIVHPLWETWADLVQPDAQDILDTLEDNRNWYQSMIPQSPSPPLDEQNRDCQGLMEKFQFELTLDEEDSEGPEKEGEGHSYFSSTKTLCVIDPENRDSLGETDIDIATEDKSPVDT
Description: as §1, §2

[7] = at 20 weeks of age, 4 i.v. administrations at 5, 7, 9, 13 weeks (NCS 613 30 μg, denbufylline 100 μg)
[8] = mice aged 11 weeks (2 weeks after 3rd administration)
[9] = mice aged 14 weeks (1 week after 4th administration)

Sequence of recombinant PDE4C (Q08493 whole entry, species assumed): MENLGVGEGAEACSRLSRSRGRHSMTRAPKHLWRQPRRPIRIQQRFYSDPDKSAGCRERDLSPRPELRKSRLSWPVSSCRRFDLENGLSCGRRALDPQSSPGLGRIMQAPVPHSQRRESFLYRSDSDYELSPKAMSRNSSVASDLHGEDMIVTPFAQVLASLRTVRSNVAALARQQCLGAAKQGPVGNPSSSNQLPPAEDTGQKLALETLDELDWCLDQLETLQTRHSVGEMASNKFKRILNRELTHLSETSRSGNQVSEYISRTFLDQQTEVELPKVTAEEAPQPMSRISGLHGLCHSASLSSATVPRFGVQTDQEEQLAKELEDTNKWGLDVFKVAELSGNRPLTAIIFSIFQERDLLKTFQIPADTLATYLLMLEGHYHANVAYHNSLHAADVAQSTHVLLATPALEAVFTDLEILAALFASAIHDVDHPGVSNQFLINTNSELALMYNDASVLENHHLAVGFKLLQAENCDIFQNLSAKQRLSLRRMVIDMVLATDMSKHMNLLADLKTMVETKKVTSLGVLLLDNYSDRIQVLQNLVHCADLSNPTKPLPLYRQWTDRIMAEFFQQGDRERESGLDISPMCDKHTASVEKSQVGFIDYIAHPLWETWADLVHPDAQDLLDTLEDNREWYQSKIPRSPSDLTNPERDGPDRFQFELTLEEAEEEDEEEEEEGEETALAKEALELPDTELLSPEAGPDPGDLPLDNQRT

Compound | IC50 (PDE5) [µM] | IC50 (PDE2) [µM] | effect on survival / life expectancy of MRL/lpr mice (MRL/lpr mice [2]) | percentage of mice with proteinuria detected (MRL/lpr mice [3]; [7]) | IC50 (PDE4) [µM] | IC50 (PDE1) [µM] | inhibition percentage of TNF-α secretion vs PBS control group [4, 8] | inhibition percentage of TNF-α secretion vs PBS control group [4, 9] | age at which first anti-DNA Ab positive mice appeared (MRL/lpr mice [6]) [weeks] | further results
CNc1nc(C(F)(F)F)nc2c1ncn2Cc1ccccc1F [NCS 613, 9-(2-fluorobenzyl)-N(6)-methyl-2-trifluoromethyladenine] | 4.7 | 24 | markedly prolongs the life expectancy | 50% | 0.042 | 39 | 44% | 54% | 20 | IC50 (recombinant PDE4C): 0.0014 µM; inhibition percentage of TNF-α secretion by mononuclear blood cells of lupus (SLE) patients, individual patients ([1]; 10 μM, LPS stimulation, 3 lupus patients): 69% and 91% and 98%; inhibition at 10 µM ([1]; LPS stimulation, mean of 3 patients, read-out: mean inhibition percentage of TNF-α secretion by mononuclear blood cells of lupus (SLE) patients): 86%; inhibition at 10 µM ([1]; patients with SLE, RA, Sjögren's syndrome, read-out: inhibition of TNF-α production by LPS-stimulated blood cells of autoimmune patients): 70 to 98%; IC50 (recombinant PDE4A): 0.043 µM; mortality (MRL/lpr mice [2]; at 21 weeks of age, 4 i.v. administrations of 30 μg): 30%; IC50 (recombinant PDE4D): 0.014 µM; percentage of mice with proteinuria detected (MRL/lpr mice [3]; at 14 weeks of age, 4 i.v. administrations at 5, 7, 9, 13 weeks (NCS 613 30 μg)): 10%; inhibition at 10 µM [5]: 67%; IC50 (PDE6): > 300 µM; percentage of mice positive for anti-DNA Abs in serum (MRL/lpr mice [6]; at 20 weeks of age): 20%; percentage of mice positive for anti-DNA Abs in serum (MRL/lpr mice [6]; at 26 weeks of age, 13 weeks after end of treatment): 50%; IC50 (recombinant PDE4B): 0.05 µM
CCCCn1c(=O)c2c(ncn2CC(C)=O)n(CCCC)c1=O [Denbufylline, denbufylline, reference compound] | 5.4 | 208 | no acknowledged effect on mouse survival | equivalent to that of control mice | 0.76 | 33 | Equivalent results | even greater than that obtained with compound NCS 613 | 14 | age at which mortality begins (MRL/lpr mice [2]; 4 i.v. administrations of 100 μg): 15 weeks; IC50 PDE6 (PDE6): n.s

From patent publication US8058281B2, “Use of adenine-derived compounds for the treatment of lupus” (Centre National de la Recherche Scientifique (CNRS), priority 2006, dated 2011)
